This assay concerns plasma Abeta1-40. Kind of assay: Plasma Abeta1-40 in human subjects after oral thiethylperazine (INNO-BIA plasma Abeta forms immunoassay). The format is in vivo. To be noted: for average increase in plasma Abeta1-40: day 1; for subjects with an increase of plasma Abeta1-40: oral. The procedure:
Samples of 10 ml venous blood were collected in standardized test tubes containing ethylene diamine tetraacetic acid (EDTA) and gently shaken 1-2 times. As soon as possible (within max. 30 min.) samples were centrifuged at 1600 g, room temperature for 10 min. Plasma was aliquoted into 6 portions of 0.5 ml. All aliquots were frozen into a deep freezer (-80° C.) within 10 min after the centrifugation and stored until use. Abeta measurements were performed using the bead-based INNO-BIA plasma Abeta forms immunoassay (Innogenetics/Fujirebio Europe, Gent, Belgium) according to the manufacturer's protocol. Plasma samples and all other kit reagents were prepared according to the manufacturer's protocol. In brief, plasma samples were thawed at room temperature, centrifuged at 4000 g for 10 min to remove any possible debris, vortexed and then diluted 3-fold using Plasma Diluent. After transferring into the filter plate diluted samples, controls and standards were washed and incubated shaking overnight at 4° C. after the addition of the first conjugate. On the next day, all wells were washed 3 times and incubated with detection conjugate for 1 h at room temperature. After another 3 times washing, reading solution was added to all wells and the measurements were performed on a Luminex IS 100 (Luminex Corporation, Austin, TX, USA) platform after 2 minutes of shaking. Luminex instrument settings used were: gate-7500 to 15000, sample volume-50 μL and counts per region-100 beads. Standard curve calculation was performed using Stata 14.2 (StataCorp, College Station, TX, USA) employing a four-parametric logistic fit (nl log4 command). All standards, controls, and the patients' samples were analyzed in duplicates; all samples from a given individual were assayed in one analytical run. The duplicate-averaged concentrations (in pg/ml) of the two biomarkers (Abeta1-40 and Abeta1-42) were calculated. In all eight standard-curves fitting models (4 runs×2 biomarkers), adjusted R-squared statistics were higher than 0.995, which speaks for excellent curve fitting quality. Herein below, thiethylperazine was used as thiethylperazine maleate, wherein the weight-based amounts [in mg] are indicated with respect to thiethylperazine; the weight-based amounts of thiethylperazine maleate [in mg] are indicated in parenthesis. […] On day 1 (t=0 h), blood samples were taken from all subjects. […] Plasma Abeta was considered an indicator of brain Abeta content and Abeta export with higher plasma Abeta concentrations indicating higher Abeta clearance from the brain (Ferrero, Williams et al. 2016, […], Chiao et al. 2016).

The values below come from US20250082647A1, “SPECIFIC DOSAGE OF PHENOTHIAZINE COMPOUNDS FOR USE IN TREATMENT OR PREVENTION OF ALZHEIMER'S DEMENTIA” (IMMUNGENETICS AG, priority 2022, published 2025).

For the compound `CCSc1ccc2c(c1)N(CCCN1CCN(C)CC1)c1ccccc1S2` [thiethylperazine, 2-(ethylsulfanyl)-10-[3-(4-methylpiperazin-1-yl)propyl]-10H-phenothiazine], the “mean plasma Abeta1-40 concentration difference between responders and non-responders” value was 33.04 pg/mL (6.5 mg thiethylperazine); 28.07 pg/mL (13 mg thiethylperazine); 16.53 pg/mL (26 mg thiethylperazine, steady state). The “average increase in plasma Abeta1-40” value reads like this: (6.5 mg thiethylperazine) 7.8%; (13 mg thiethylperazine) 7.8%. In addition, the “subjects with an increase of plasma Abeta1-40” value is, setting by setting: (26 mg thiethylperazine (41.12 mg maleate) per day over three consecutive days, steady state, 15 subjects (comparative)) 40%; (after second administration on day 1, dose of 13 mg thiethylperazine (20.56 mg maleate), 15 subjects) 87%; (initial dose of 6.5 mg thiethylperazine (10.28 mg maleate), day 1, blood four hours after administration, 15 subjects) 53%. Besides, the “average change of plasma Abeta1-40” value (26 mg thiethylperazine per day over three consecutive days, steady state) came to 6.5%. The “average increase in plasma Abeta1-40 higher compared to higher dose” value (lower dose 2-20 mg (6.5 mg and 13 mg) versus 26 mg) is recorded as at least 20%.
